From patent US20200308170A1, “KRAS G12C INHIBITORS” (Mirati Therapeutics, Inc., priority 2017, published 2020)

target: T1, KRas G12C (Homo sapiens, UniProt P01116, C118S/C51S/C80L/G12C); test: KRas G12C Modification Assay (LCMS detection of covalent adduct); assay type: binding; conditions: 5 μM concentration for 3 hours; LC/MS of intact protein; higher POC = higher degree of modification
T1 construct: GDP-loaded K-Ras (1-169) G12C, C51S, C80L, C118S
Description: A 10 μL aliquot of each protein solution was then transferred to a 384 well microtiter plate. Initial compound stocks were generated at fifty times their desired final assay concentration in DMSO.
Exemplary compounds of Formula (II) were diluted 25-fold into K-Ras Assay Buffer to a final of two times their final concentration. A 10 μL aliquot of each diluted compound solution was then added to each of the protein solutions in the microtiter plate to initiate reaction. […] At each time point, the reactions were quenched with 20 μL of a 25 mM acetic acid solution. […] Once all reactions were quenched, the plates were heat sealed and the samples were injected into a LC/MS system for data acquisition.
Samples were injected in their liquid phase onto a C-3 reverse phase column to remove assay buffer and prepare the samples for mass spectrometer. The proteins were eluted from the column using an acetonitrile gradient and fed directly into the mass analyzer. Initial raw data analysis took place in Agilent MassHunter software immediately post data acquisition.
Raw data analysis of the intact protein was exclusively a deconvolution of the multiple charge states of each protein in solution using a maximum entropy deconvolution provided in Mass Hunter. To minimize complexity, only the data over limited mass ranges were considered for analysis, with a minimum of one Dalton mass step intervals. The heights of all masses identified during raw data analysis were exported to be further analyzed in Spotfire® data analysis software.
Final data analysis was a multistep process in the Spotfire® data analysis software package. Briefly, each protein mass was calculated as a percent of the total signal of that sample, that percentage was then normalized to the percentage of signal of the protein in the absence of reactive compounds. Those normalized signals were reported as normalized percent of control (POC). […] Key: “A”≤25% POC; “B”>25% POC−≤50% POC; “C”>50% POC and ND=not determined.

| POC (normalized percent of control; degree of covalent modification of KRas G12C) | SMILES |
| --- | --- |
| C (“C”>50% POC) | CN1CCC[C@H]1COc1nc2c(c(N3CCN(C(=O)/C=C/CN4CC(F)C4)[C@@H](CC#N)C3)n1)CCN(c1cccc3cccc(Cl)c13)C2 [Example 10, 2-[(2S)-4-[7-(8-chloro-1-naphthyl)-2-[[(2S)-1-methylpyrrolidin-2-yl]methoxy]-6,8-dihydro-5H-pyrido[3,4-d]pyrimidin-4-yl]-1-[(E)-4-(3-fluoroazetidin-1-yl)but-2-enoyl]piperazin-2-yl]acetonitrile] |
| C (“C”>50% POC) | Cc1cccc(N2CCc3c(nc(OC[C@@H]4CCCN4C)nc3N3CCN(C(=O)/C=C\Cl)[C@@H](CC#N)C3)C2)c1C [Example 34, 2-((S)-1-((Z)-3-chloroacryloyl)-4-(7-(2,3-dimethylphenyl)-2-(((S)-1-methylpyrrolidin-2-yl)methoxy)-5,6,7,8-tetrahydropyrido[3,4-d]pyrimidin-4-yl)piperazin-2-yl)acetonitrile] |
| C (“C”>50% POC) | COC/C=C/C(=O)N1CCN(c2nc(OC[C@@H]3CCCN3C)nc3c2CCN(c2cccc4cccc(C)c24)C3)C[C@@H]1CC#N [Example 40, 2-((S)-1-((E)-4-methoxybut-2-enoyl)-4-(7-(8-methylnaphthalen-1-yl)-2-(((S)-1-methylpyrrolidin-2-yl)methoxy)-5,6,7,8-tetrahydropyrido[3,4-d]pyrimidin-4-yl)piperazin-2-yl)acetonitrile] |
| A (“A”≤25% POC) | C=C(C(=O)N1CCN(c2nc(OC[C@@H]3CCCN3C)nc3c2CCN(c2cccc(C)c2C)C3)C[C@@H]1CC#N)C(F)(F)F [Example 16, 2-((S)-4-(7-(2,3-dimethylphenyl)-2-(((S)-1-methylpyrrolidin-2-yl)methoxy)-5,6,7,8-tetrahydropyrido[3,4-d]pyrimidin-4-yl)-1-(2-(trifluoromethyl)acryloyl)piperazin-2-yl)acetonitrile] |
| C (“C”>50% POC) | Cc1cccc(N2CCc3c(nc(OC[C@@H]4CCCN4C)nc3N3CCN(C(=O)/C=C/CN4CCC(F)C4)[C@@H](CC#N)C3)C2)c1C (stereo partly drawn) [Example 5, 2-[(2S)-4-[7-(2,3-dimethylphenyl)-2-[[(2S)-1-methylpyrrolidin-2-yl]methoxy]-6,8-dihydro-5H-pyrido[3,4-d]pyrimidin-4-yl]-1-[(E)-4-(3-fluoropyrrolidin-1-yl)but-2-enoyl]piperazin-2-yl]acetonitrile] |
| C (“C”>50% POC) | CN1CCC[C@H]1COc1nc2c(c(N3CCN(C(=O)/C=C/CN4CCC(F)C4)[C@@H](CC#N)C3)n1)CCN(c1cccc3cccc(Cl)c13)C2 (stereo partly drawn) [Example 9, 2-[(2S)-4-[7-(8-chloro-1-naphthyl)-2-[[(2S)-1-methylpyrrolidin-2-yl]methoxy]-6,8-dihydro-5H-pyrido[3,4-d]pyrimidin-4-yl]-1-[(E)-4-(3-fluoropyrrolidin-1-yl)but-2-enoyl]piperazin-2-yl]acetonitrile] |

The next lines start with the molecule.

| SMILES | POC (normalized percent of control; degree of covalent modification of KRas G12C) |
| --- | --- |
| COC/C=C/C(=O)N1CCN(c2nc(OC[C@@H]3CCCN3C)nc3c2CCN(c2cccc4cccc(Cl)c24)C3)C[C@@H]1CC#N [Example 53, 2-((S)-4-(7-(8-chloronaphthalen-1-yl)-2-(((S)-1-methylpyrrolidin-2-yl)methoxy)-5,6,7,8-tetrahydropyrido[3,4-d]pyrimidin-4-yl)-1-((E)-4-methoxybut-2-enoyl)piperazin-2-yl)acetonitrile] | C (“C”>50% POC) |
| Cc1cccc2cccc(N3CCc4c(nc(OC[C@@H]5CCCN5C)nc4N4CCN(C(=O)/C=C/C(N)=O)[C@@H](CC#N)C4)C3)c12 [Example 29, (E)-4-((S)-2-(cyanomethyl)-4-(7-(8-methylnaphthalen-1-yl)-2-(((S)-1-methylpyrrolidin-2-yl)methoxy)-5,6,7,8-tetrahydropyrido[3,4-d]pyrimidin-4-yl)piperazin-1-yl)-4-oxobut-2-enamide] | C (“C”>50% POC) |
| [2H]C([2H])=C([2H])C(=O)N1CCN(c2nc(OC[C@@H]3CCCN3C)nc3c2CCN(c2cccc4ccccc24)C3)C[C@@H]1CC#N [Example 4, 2-[(2S)-4-[2-[[(2S)-1-methylpyrrolidin-2-yl]methoxy]-7-(1-naphthyl)-6,8-dihydro-5H-pyrido[3,4-d]pyrimidin-4-yl]-1-(2,3,3-trideuterioprop-2-enoyl)piperazin-2-yl]acetonitrile] | C (“C”>50% POC) |
| C=C(C(=O)N1CCN(c2nc(OC[C@@H]3CCCN3C)nc3c2CCN(c2cccc4cccc(Cl)c24)C3)C[C@@H]1CC#N)C(F)(F)F [Example 33, 2-[(2S)-4-[7-(8-chloro-1-naphthyl)-2-[[(2S)-1-methylpyrrolidin-2-yl]methoxy]-6,8-dihydro-5H-pyrido[3,4-d]pyrimidin-4-yl]-1-[2-(trifluoromethyl)prop-2-enoyl]piperazin-2-yl]acetonitrile] | C (“C”>50% POC) |
| Cc1cccc2cccc(N3CCc4c(nc(OC[C@@H]5CCCN5C)nc4N4CCN(C(=O)/C=C/c5ccccn5)[C@@H](CC#N)C4)C3)c12 [Example 22, 2-((S)-4-(7-(8-methylnaphthalen-1-yl)-2-(((S)-1-methylpyrrolidin-2-yl)methoxy)-5,6,7,8-tetrahydropyrido[3,4-d]pyrimidin-4-yl)-1-((E)-3-(pyridin-2-yl)acryloyl)piperazin-2-yl)acetonitrile] | C (“C”>50% POC) |
| C=C(NC(C)=O)C(=O)N1CCN(c2nc(OC[C@@H]3CCCN3C)nc3c2CCN(c2cccc4cccc(C)c24)C3)C[C@@H]1CC#N [Example 54, N-(3-((S)-2-(cyanomethyl)-4-(7-(8-methylnaphthalen-1-yl)-2-(((S)-1-methylpyrrolidin-2-yl)methoxy)-5,6,7,8-tetrahydropyrido[3,4-d]pyrimidin-4-yl)piperazin-1-yl)-3-oxoprop-1-en-2-yl)acetamide] | B (“B”>25% POC−≤50% POC) |
| Cc1cccc2cccc(N3CCc4c(nc(OC[C@@H]5CCCN5C)nc4N4CCN(C(=O)/C=C/C(=O)N(C)C)[C@@H](CC#N)C4)C3)c12 [Example 28, (E)-4-((S)-2-(cyanomethyl)-4-(7-(8-methylnaphthalen-1-yl)-2-(((S)-1-methylpyrrolidin-2-yl)methoxy)-5,6,7,8-tetrahydropyrido[3,4-d]pyrimidin-4-yl)piperazin-1-yl)-N,N-dimethyl-4-oxobut-2-enamide] | C (“C”>50% POC) |
| Cc1cccc2cccc(N3CCc4c(nc(OC[C@@H]5CCCN5C)nc4N4CCN(C(=O)C#CCO)[C@@H](CC#N)C4)C3)c12 [Example 37, 2-((S)-1-(4-hydroxybut-2-ynoyl)-4-(7-(8-methylnaphthalen-1-yl)-2-(((S)-1-methylpyrrolidin-2-yl)methoxy)-5,6,7,8-tetrahydropyrido[3,4-d]pyrimidin-4-yl)piperazin-2-yl)acetonitrile] | C (“C”>50% POC) |
| CN1CCC[C@H]1COc1nc2c(c(N3CCN(C(=O)C#CCO)[C@@H](CC#N)C3)n1)CCN(c1cccc3cccc(Cl)c13)C2 [Example 12, 2-[(2S)-4-[7-(8-chloro-1-naphthyl)-2-[[(2S)-1-methylpyrrolidin-2-yl]methoxy]-6,8-dihydro-5H-pyrido[3,4-d]pyrimidin-4-yl]-1-(4-hydroxybut-2-ynoyl)piperazin-2-yl]acetonitrile] | C (“C”>50% POC) |

target: KRas G12C (Homo sapiens, UniProt P01116, G12C); test: Inhibition of KRas G12C in NCI-H358 cells measured by phosphorylated ERK (Phospho-ERK); assay type: cell-based; conditions: 3 hours, 4 parameter fit, read-out: IC50 (pERK(Thr202/Tyr204) signal normalized with GAPDH)
Description: Cells were plated in poly-D-Lysine coated 96-well plates at a concentration of 50,000 cells/well and allowed to attach for 8-12 hours. Diluted compounds were then added at a final concentration of 0.5% DMSO. After 3 hours, the medium was removed, 150 μL of 4% formaldehyde was added and the plates were incubated for 20 minutes. The plates were washed with PBS, and permeabilized using 150 μL of ice cold 100% methanol for 10 minutes. Non-specific antibody binding to the plates was blocked using 100 μL Licor Blocking Buffer (Li-Cor Biotechnology, Lincoln Nebr.) for 1 hour at room temperature. Positive control samples and samples lacking cells were parallel processed with test samples as standards.
The amount Phospho-ERK was determined using an antibody specific for the phosphorylated form of ERK and compared to the amount of GAPDH. […] The plates were incubated for 2 hours at room temperature. The plates were washed with PBS+0.05% Tween 20.
Secondary antibodies used to visualize primary antibodies were added as follows: Anti-rabbit-680 diluted 1:1000 and Anti-mouse-800 diluted 1:1000 in Licor Block+0.05% Tween 20 and incubated for 1 hour at room temperature. The plates were washed with PBS+0.05% Tween 20. A 100 μL aliquot of PBS was added to each well and the plates were read on a LICOR AERIUS plate reader.
The pERK(Thr202/Tyr204) signal was normalized with the GAPDH signal and percent of DMSO control values were calculated. IC50 values were generated using a 4 parameter fit of the dose response curve.

| IC50 [nM] | SMILES |
| --- | --- |
| 0.1 to 1000 | C=C(F)C(=O)N1CCN(c2nc(OCC3CCC(C)(C)N3C)nc3c2CCN(c2cccc4ccc(F)c(Cl)c24)C3)C[C@@H]1CC#N (stereo partly shown) [Example 199] |
